US12187713B2, “Immunomodulators, compositions and methods thereof” (Betta Pharmaceuticals Co., Ltd, priority 2019, dated 2025)

Biological target: PD-1/PD-L1 (Homo sapiens (Human), UniProt Q9NZQ7)
Test: PD-1/PD-L1 Binding Assay (Alphascreen)
Details: numeric values
Description: PD-1/PD-L1 Binding Assay (Alphascreen)
The assays were conducted in a standard black 384-well polystyrene plate with a final volume of 20 μL. Inhibitors were first serially diluted in DMSO and then added to the plate wells before the addition of other reaction components. The final concentration of DMSO in the assay was […]. Add 100 nL/well of compound to the 384 reaction plate (6008280, PerkinElmer) with Echo and centrifuge at 1000 rpm for 1 minute. Add 5 μL/well 4×PD-L1 solutions to the 384 reaction plate, centrifuge at 1000 rpm for 1 minute, and add 5 μL/well 4×PD-1 solutions, centrifuge at 1000 rpm for 1 minute, and incubate at 25° C. for 15 minutes. The concentrations of the compounds were 300, 100, 33.33, 11.11, 3.70, 1.23, 0.41, 0.137, 0.046, 0.015, 0 nM, respectively. Add 10 μL/well 2× Anti-6×His AlphaLISA Acceptor beads and Streptavidin Donor beads solution (PerkinElmer-AL356F) to the above 384 reaction plate, centrifuge at 1000 rpm for 1 minute, and incubate at 25° C. in the dark for 120 minutes. Read the AlphaLISA signal value using the Envision Reader. IC50 determination was performed by fitting the curve of percent control activity versus the log of the inhibitor concentration using the GraphPad Prism 8.0 software.

Chain of PD-1/PD-L1 (Q9NZQ7 19-238): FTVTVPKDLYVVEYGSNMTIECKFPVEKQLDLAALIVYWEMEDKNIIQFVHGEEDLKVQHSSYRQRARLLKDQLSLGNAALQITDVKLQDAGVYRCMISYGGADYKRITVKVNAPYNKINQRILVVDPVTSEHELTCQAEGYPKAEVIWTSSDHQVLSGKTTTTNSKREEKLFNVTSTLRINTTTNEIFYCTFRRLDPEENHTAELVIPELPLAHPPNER

Compound | IC50 [nM]
Cc1c(-c2nc3cc(CN(C)[C@@H]4CCC[C@@H]4O)c(OC(F)F)cc3o2)cccc1-c1cccc(-c2nc3cc(CN4CCC[C@H]4C(=O)O)c(OC(F)F)cc3o2)c1C [Example 1, ((6-(difluoromethoxy)-2-(3′-(6-(difluoromethoxy)-5-((((1R,2S)-2-hydroxycyclopentyl)(methyl)amino)methyl)benzo[d]oxazol-2-yl)-2,2′-dimethyl-[1,1′-biphenyl]-3-yl)benzo[d]oxazol-5-yl)methyl)-L-proline] | 0.89
Cc1c(-c2nc3cc(CN4CCC[C@H]4C(=O)O)c(OC(F)F)cc3o2)cccc1-c1cccc(-c2nc3cc(CN4CC(C)(C)C4)c(OC(F)F)cc3o2)c1C#N [Example 4, ((2-(2′-cyano-3′-(6-(difluoromethoxy)-5-((3,3-dimethylazetidin-1-yl)methyl)benzo[d]oxazol-2-yl)-2-methyl-[1,1′-biphenyl]-3-yl)-6-(difluoromethoxy)benzo[d]oxazol-5-yl)methyl)-L-proline] | 1.4
Cc1c(-c2nc3cc(CN4CCC[C@H]4C(=O)O)c(OC(F)F)cc3o2)cccc1-c1cccc(-c2nc3cc(CN4CCCC4)c(OC(F)F)cc3o2)c1F [Example 6, ((6-(difluoromethoxy)-2-(3′-(6-(difluoromethoxy)-5-(pyrrolidin-1-ylmethyl)benzo[d]oxazol-2-yl)-2′-fluoro-2-methyl-[1,1′-biphenyl]-3-yl)benzo[d]oxazol-5-yl)methyl)-L-proline] | 4.3
Cc1c(-c2nc3cc(CNCCO)c(OC(F)F)cc3o2)cccc1-c1cccc(-c2nc3cc(CN4CCC[C@H]4C(=O)O)c(OC(F)F)cc3o2)c1C [Example 7, ((6-(difluoromethoxy)-2-(3′-(6-(difluoromethoxy)-5-(((2-hydroxyethyl)amino)methyl)benzo[d]oxazol-2-yl)-2,2′-dimethyl-[1,1′-biphenyl]-3-yl)benzo[d]oxazol-5-yl)methyl)-L-proline] | 0.61
Cc1c(-c2nc3cc(CN4CC(F)C4)c(OC(F)F)cc3o2)cccc1-c1cccc(-c2nc3cc(CN4CCC[C@H]4C(=O)O)c(OC(F)F)cc3o2)c1C [Example 9, ((6-(difluoromethoxy)-2-(3′-(6-(difluoromethoxy)-5-((3-fluoroazetidin-1-yl)methyl)benzo[d]oxazol-2-yl)-2,2′-dimethyl-[1,1′-biphenyl]-3-yl)benzo[d]oxazol-5-yl)methyl)-L-proline] | 18
Cc1c(-c2nc3cc(CN4CCC[C@H]4C(N)=O)c(OC(F)F)cc3o2)cccc1-c1cccc(-c2nc3cc(CN4CCC[C@H]4C(=O)O)c(OC(F)F)cc3o2)c1C [Example 11, ((2-(3′-(5-(((S)-2-carbamoylpyrrolidin-1-yl)methyl)-6-(difluoromethoxy)benzo[d]oxazol-2-yl)-2,2′-dimethyl-[1,1′-biphenyl]-3-yl)-6-(difluoromethoxy)benzo[d]oxazol-5-yl)methyl)-L-proline] | 33
Cc1c(-c2nc3cc(CN(C)CCO)c(OC(F)F)cc3o2)cccc1-c1cccc(-c2nc3cc(CN4CCC[C@H]4C(=O)O)c(OC(F)F)cc3o2)c1C [Example 17, ((6-(difluoromethoxy)-2-(3′-(6-(difluoromethoxy)-5-(((2-hydroxyethyl)(methyl)amino)methyl)benzo[d]oxazol-2-yl)-2,2′-dimethyl-[1,1′-biphenyl]-3-yl)benzo[d]oxazol-5-yl)methyl)-L-proline] | 1.2
Cc1c(-c2nc3cc(CNC[C@@H]4CCC(=O)N4)c(OC(F)F)cc3o2)cccc1-c1cccc(-c2nc3cc(CN4CCC[C@H]4C(=O)O)c(OC(F)F)cc3o2)c1C [Example 19, ((6-(difluoromethoxy)-2-(3′-(6-(difluoromethoxy)-5-(((((S)-5-oxopyrrolidin-2-yl)methyl)amino)methyl)benzo[d]oxazol-2-yl)-2,2′-dimethyl-[1,1′-biphenyl]-3-yl)benzo[d]oxazol-5-yl)methyl)-L-proline] | 1.3
